# Literature values in patent publication US9320732B2, “1,2,5-oxadiazoles as inhibitors of indoleamine 2,3-dioxygenase” (Incyte Corporation, priority 2008, dated 2016).
# Assays:
# LLC tumors = details: C57Bl/6 mice, versus placebo
# P815 tumor = details: immune-competent pre-immunized mice
# [1] = system: allogeneic concepti in pregnant mice; details: pregnant mice exposed to 1MT
smiles,measurement,setting,value
"Cn1cc(C[C@H](N)C(=O)O)c2ccccc21 [Example 1-MT, 1-methyl-tryptophan]",formation of LLC tumors,LLC tumors,markedly delayed
same,growth of tumors in pre-immunization model,P815 tumor,inhibited
same,rejection of allogeneic concepti,[1],"rapid, T cell-induced rejection of all allogeneic concepti"
